Test results reported in PubChem BioAssay AID328 (DTP/NCI, 2004).
Where “and” joins values, the source holds several entries; their conditions need not be identical. Equal entries are not always repeated. Inconclusive results and toxic doses are left out.

System: BDF1 mice, P388 leukemia ip, median survival T/C
Experiment: NCI In Vivo Anticancer Drug Screen. Data for tumor model P388 Leukemia (intraperitoneal) in B6D2F1 (BDF1) mice
Conditions: endpoint: median survival time, higher = longer survival
Method in brief: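 Antitumour effect was judged in vivo: survival in drug-treated mice, normalised to that of vehicle-dosed controls, gives the reported T/C.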

[1] = dose: 6.25 mg/kg/injection, schedule: Q01DX009 (ip), vehicle: Klucel (hydroxypropylcellulose) (HPC)
[2] = dose: 12.5 mg/kg/injection, schedule: Q01DX009 (ip), vehicle: Klucel (hydroxypropylcellulose) (HPC)
[3] = dose: 25.0 mg/kg/injection, schedule: Q01DX009 (ip), vehicle: Klucel (hydroxypropylcellulose) (HPC)
[4] = dose: 100.0 mg/kg/injection, schedule: Q04DX003 (ip), vehicle: saline with Tween-80
[5] = dose: 50.0 mg/kg/injection, schedule: Q01DX009 (ip), vehicle: saline
[6] = dose: 100.0 mg/kg/injection, schedule: Q01DX009 (ip), vehicle: saline
[7] = dose: 50.0 mg/kg/injection, schedule: Q01DX009 (ip), vehicle: saline with Tween-80
[8] = dose: 100.0 mg/kg/injection, schedule: Q01DX009 (ip), vehicle: saline with Tween-80
[9] = dose: 200.0 mg/kg/injection, schedule: Q04DX003 (ip), vehicle: saline with Tween-80

For `O=CNC(Cc1ccc(N(CCCl)CCCl)cc1)C(=O)O` (stereo not drawn), the T/C (dose: 1.1 mg/kg/injection, schedule: Q01DX009 (ip), vehicle: Klucel (hydroxypropylcellulose) (HPC)) was 107 % of control, the T/C (dose: 1.46 mg/kg/injection, schedule: Q04DX003 (ip), vehicle: saline) was 104 % of control and the T/C (dose: 1.56 mg/kg/injection, schedule: Q01DX009 (ip), vehicle: saline) was 118 % of control. For the same compound, the T/C (dose: 1.7 mg/kg/injection, schedule: Q01DX009 (ip), vehicle: Klucel (hydroxypropylcellulose) (HPC)) was 107 % of control, the T/C (dose: 2.2 mg/kg/injection, schedule: Q04DX003 (ip), vehicle: saline) was 100 % of control and the T/C (dose: 3.13 mg/kg/injection, schedule: Q01DX009 (ip), vehicle: saline) was 104 % of control. The T/C (dose: 3.3 mg/kg/injection, schedule: Q04DX003 (ip), vehicle: saline) was 118 % of control, the T/C (dose: 5.0 mg/kg/injection, schedule: Q04DX003 (ip), vehicle: saline) was 122 % of control and the T/C [1] was 175 % of control. For the same compound, the T/C (dose: 6.25 mg/kg/injection, schedule: Q01DX009 (ip), vehicle: saline) was 181 % of control, the T/C (dose: 8.3 mg/kg/injection, schedule: Q04DX003 (ip), vehicle: Klucel (hydroxypropylcellulose) (HPC)) was 109 % of control and the T/C (dose: 11.0 mg/kg/injection, schedule: Q04DX003 (ip), vehicle: saline) was 160 % of control. The T/C (dose: 12.0 mg/kg/injection, schedule: Q04DX003 (ip), vehicle: Klucel (hydroxypropylcellulose) (HPC)) was 118 % of control, the T/C [2] was 185 % of control and the T/C (dose: 16.0 mg/kg/injection, schedule: Q01DX009 (ip), vehicle: Klucel (hydroxypropylcellulose) (HPC)) was 160 % of control and 200 % of control. The T/C (dose: 16.5 mg/kg/injection, schedule: Q04DX003 (ip), vehicle: saline) was 163 % of control and 169 % of control, the T/C (dose: 23.3 mg/kg/injection, schedule: Q01DX009 (ip), vehicle: Klucel (hydroxypropylcellulose) (HPC)) was 170 % of control and the T/C [3] was 230 % of control and 220 % of control. For the same compound, the T/C (dose: 25.0 mg/kg/injection, schedule: Q04DX003 (ip), vehicle: saline) was 172 % of control and 200 % of control, the T/C (dose: 29.0 mg/kg/injection, schedule: Q04DX003 (ip), vehicle: Klucel (hydroxypropylcellulose) (HPC)) was 115 % of control and the T/C (dose: 35.0 mg/kg/injection, schedule: Q01DX009 (ip), vehicle: Klucel (hydroxypropylcellulose) (HPC)) was 245 % of control and 195 % of control. The T/C (dose: 37.5 mg/kg/injection, schedule: Q04DX003 (ip), vehicle: saline) was 234 % of control and 186 % of control, the T/C (dose: 40.0 mg/kg/injection, schedule: Q04DX003 (ip), vehicle: Klucel (hydroxypropylcellulose) (HPC)) was 204 % of control and the T/C (dose: 44.0 mg/kg/injection, schedule: Q04DX003 (ip), vehicle: Klucel (hydroxypropylcellulose) (HPC)) was 240 % of control. The T/C (dose: 50.0 mg/kg/injection, schedule: Q01DX009 (ip), vehicle: Klucel (hydroxypropylcellulose) (HPC)) was 272 % of control, the T/C (dose: 60.0 mg/kg/injection, schedule: Q04DX003 (ip), vehicle: Klucel (hydroxypropylcellulose) (HPC)) was 272 % of control and the T/C (dose: 66.0 mg/kg/injection, schedule: Q04DX003 (ip), vehicle: Klucel (hydroxypropylcellulose) (HPC)) was 280 % of control. The T/C (dose: 100.0 mg/kg/injection, schedule: Q04DX003 (ip), vehicle: Klucel (hydroxypropylcellulose) (HPC)) was 175 % of control, the T/C [4] was 95 % of control and the T/C (dose: 132.0 mg/kg/injection, schedule: Q04DX003 (ip), vehicle: Klucel (hydroxypropylcellulose) (HPC)) was 250 % of control. The T/C (dose: 200.0 mg/kg/injection, schedule: Q04DX003 (ip), vehicle: Klucel (hydroxypropylcellulose) (HPC)) was 185 % of control.
For `Nc1cc2c(c[n+](Cc3ccccc3)c3ccccc23)c2ccccc12`, the T/C (dose: 3.13 mg/kg/injection, schedule: Q04DX003 (ip), vehicle: other) was 98 % of control.
For `O=C(/C=C/c1cccc(Br)c1)c1ccc(Cl)cc1`, the T/C (dose: 50.0 mg/kg/injection, schedule: Q01DX009 (ip), vehicle: other) was 120 % of control, the T/C (dose: 50.0 mg/kg/injection, schedule: Q04DX003 (ip), vehicle: other) was 100 % of control and the T/C (dose: 100.0 mg/kg/injection, schedule: Q01DX009 (ip), vehicle: other) was 120 % of control. For the same compound, the T/C (dose: 100.0 mg/kg/injection, schedule: Q04DX003 (ip), vehicle: other) was 100 % of control, the T/C (dose: 132.0 mg/kg/injection, schedule: Q01DX009 (ip), vehicle: other) was 100 % of control and the T/C (dose: 200.0 mg/kg/injection, schedule: Q01DX009 (ip), vehicle: other) was 104 % of control. For the same compound, the T/C (dose: 200.0 mg/kg/injection, schedule: Q04DX003 (ip), vehicle: other) was 90 % of control and the T/C (dose: 300.0 mg/kg/injection, schedule: Q01DX009 (ip), vehicle: other) was 104 % of control.
For `S=C(S)N1CCN(C(=S)S)CC1`, the T/C (dose: 25.0 mg/kg/injection, schedule: Q01DX009 (ip), vehicle: saline) was 100 % of control and 104 % of control and 110 % of control, the T/C (dose: 35.0 mg/kg/injection, schedule: Q01DX009 (ip), vehicle: saline) was 91 % of control and the T/C [5] was 95 % of control and 105 % of control. For the same compound, the T/C [6] was 95 % of control and the T/C (dose: 200.0 mg/kg/injection, schedule: Q01DX009 (ip), vehicle: saline) was 86 % of control.
`O=C(CCBr)N1CCN(C(=O)CCBr)CC1` was tested, and the T/C (dose: 10.0 mg/kg/injection, schedule: Q01DX010 (ip), vehicle: saline) was 109 % of control, the T/C (dose: 20.0 mg/kg/injection, schedule: Q01DX010 (ip), vehicle: saline) was 122 % of control and the T/C (dose: 40.0 mg/kg/injection, schedule: Q01DX010 (ip), vehicle: saline) was 181 % of control.
With `COc1ccc2nc(C)c(COC(C)=O)cc2c1` the T/C (dose: 25.0 mg/kg/injection, schedule: Q01DX009 (ip), vehicle: saline + alcohol) was 93 % of control, the T/C (dose: 50.0 mg/kg/injection, schedule: Q01DX009 (ip), vehicle: saline + alcohol) was 111 % of control and the T/C (dose: 50.0 mg/kg/injection, schedule: Q04DX003 (ip), vehicle: saline + alcohol) was 109 % of control. The T/C (dose: 100.0 mg/kg/injection, schedule: Q01DX009 (ip), vehicle: saline + alcohol) was 101 % of control, the T/C (dose: 100.0 mg/kg/injection, schedule: Q04DX003 (ip), vehicle: saline + alcohol) was 109 % of control and the T/C (dose: 200.0 mg/kg/injection, schedule: Q01DX009 (ip), vehicle: saline + alcohol) was 90 % of control. The T/C (dose: 200.0 mg/kg/injection, schedule: Q04DX003 (ip), vehicle: saline + alcohol) was 97 % of control, the T/C (dose: 400.0 mg/kg/injection, schedule: Q01DX009 (ip), vehicle: saline + alcohol) was 109 % of control and the T/C (dose: 400.0 mg/kg/injection, schedule: Q04DX003 (ip), vehicle: saline + alcohol) was 110 % of control.
`O=CNNC(=O)c1ccccn1` was tested, and the T/C [7] was 96 % of control, the T/C [5] was 100 % of control and the T/C (dose: 50.0 mg/kg/injection, schedule: Q04DX003 (ip), vehicle: saline) was 100 % of control. The T/C [8] was 96 % of control, the T/C [6] was 104 % of control and the T/C [4] was 113 % of control. The T/C (dose: 100.0 mg/kg/injection, schedule: Q04DX003 (ip), vehicle: saline) was 100 % of control, the T/C (dose: 200.0 mg/kg/injection, schedule: Q01DX009 (ip), vehicle: saline with Tween-80) was 96 % of control and the T/C [9] was 109 % of control. The T/C (dose: 200.0 mg/kg/injection, schedule: Q04DX003 (ip), vehicle: saline) was 100 % of control.
`CC(C)n1cnc2c(Cl)ncnc21` was tested, and the T/C [8] was 100 % of control, the T/C [4] was 104 % of control and the T/C [9] was 95 % of control. For the same compound, the T/C (dose: 400.0 mg/kg/injection, schedule: Q04DX003 (ip), vehicle: saline with Tween-80) was 90 % of control.
In the case of `C=C1C(=O)OC2C3OC(C)(CCC(O)C3COC(C)=O)CC(OC(=O)/C(=C/C)COC(C)=O)C12` (stereo not drawn), the T/C (dose: 3.13 mg/kg/injection, schedule: Q01DX009 (ip), vehicle: Klucel (hydroxypropylcellulose) (HPC)) is reported as 100 % of control, the T/C [1] is reported as 112 % of control and the T/C [2] is reported as 102 % of control. The T/C [3] was 121 % of control.
For `CSP12(OCCO1)OCCO2`, the T/C (dose: 50.0 mg/kg/injection, schedule: Q01DX005 (ip), vehicle: saline) was 94 % of control, the T/C (dose: 100.0 mg/kg/injection, schedule: Q01DX005 (ip), vehicle: saline) was 94 % of control and the T/C (dose: 200.0 mg/kg/injection, schedule: Q01DX005 (ip), vehicle: saline) was 91 % of control.
With `CCOC(=O)C(C#N)C(C(C)=O)C(=O)OCC` (stereo not drawn) the T/C (dose: 25.0 mg/kg/injection, schedule: Q01DX009 (ip), vehicle: saline with Tween-80) was 118 % of control, the T/C (dose: 25.0 mg/kg/injection, schedule: Q04DX003 (ip), vehicle: saline sonified) was 95 % of control and the T/C [7] was 90 % of control. For the same compound, the T/C (dose: 50.0 mg/kg/injection, schedule: Q04DX003 (ip), vehicle: saline sonified) was 100 % of control and the T/C (dose: 100.0 mg/kg/injection, schedule: Q04DX003 (ip), vehicle: saline sonified) was 104 % of control.
